Source: patent EP0452101B1, “Spiro bridged and unbridged heterocyclic compounds” (ISRAEL INSTITUTE FOR BIOLOGICAL RESEARCH, priority 1990, dated 1991)

Test system: Male white mice of the CD-1 strain
Test: Pharmacodynamic profile and general toxicity, Part B (signs, mortality, LD50)
Type: in vivo
Set-up: key to Altered spontaneous motor activity (Mot): increased (inc); decreased (dec); key to Piloerection (Pil) / Hypothermia (Hyp) / Salivation (Sal) / Lacrimation (Lac) / Diarrhea (Dia) / Mydriasis (Myd): sli = slight; mod = moderate; sev = severe
Conditions: for Analgesia (Ana) / Convulsive seizure (Con) / Respiratory distress (Res) / Tremors (Tre): animals affected/treated
From the text: Male white mice of the CD-1 strain (Charles River, UK), within the body weight range of 18-26 g, were used throughout this study, carried out on AF123, AF125 and AF125(N).
Furthermore, these initial trials clearly established that the major signs of reactions to treatment consisted primarily of signs characteristic for potential cholinomimetic activity of the test material, such as tremors, salivation, lacrimation, diarrhea, analgesia, hypothermia and vasodilation. […]

CC1=NCC2(CN3CCC2CC3)O1 (racemic) [AF125, 2-Methyl-spiro(1,3 oxazoline-5,3')quinuclidine]
mod: Salivation (Sal) (10 mg/kg i.v.) | Diarrhea (Dia) (20 mg/kg i.v., Table 9) | Hypothermia (Hyp) (20 mg/kg i.v., Table 9) | Mydriasis (Myd) (20 mg/kg i.v., Table 9) | Piloerection (Pil) (20 mg/kg i.v., Table 9) | Diarrhea (Dia) (40 mg/kg i.v.) | Hypothermia (Hyp) (40 mg/kg i.v.) | Mydriasis (Myd) (40 mg/kg i.v.) | Piloerection (Pil) (40 mg/kg i.v.) | Lacrimation (Lac) (40 mg/kg p.os) | Lacrimation (Lac) (50 mg/kg p.os) | Piloerection (Pil) (50 mg/kg p.os) | Salivation (Sal) (50 mg/kg p.os)
3/5: Respiratory distress (Res) (40 mg/kg i.v.) | Analgesia (Ana) (40 mg/kg p.os)
1/5: Respiratory distress (Res) (20 mg/kg i.v., Table 9) | Convulsive seizure (Con) (40 mg/kg i.v.)
2/5: Tremors (Tre) (20 mg/kg i.v., Table 9) | Tremors (Tre) (50 mg/kg p.os)
5/5: Analgesia (Ana) (5 mg/kg i.v.) | Analgesia (Ana) (10 mg/kg i.v.) | Analgesia (Ana) (20 mg/kg i.v., Table 9) | Analgesia (Ana) (40 mg/kg i.v.) | Tremors (Tre) (40 mg/kg i.v.) | Analgesia (Ana) (50 mg/kg p.os)
0/5: Convulsive seizure (Con) (5 mg/kg i.v.) | Respiratory distress (Res) (5 mg/kg i.v.) | Tremors (Tre) (5 mg/kg i.v.) | Convulsive seizure (Con) (10 mg/kg i.v.) | Respiratory distress (Res) (10 mg/kg i.v.) | Tremors (Tre) (10 mg/kg i.v.) | Convulsive seizure (Con) (10 mg/kg p.os) | Respiratory distress (Res) (10 mg/kg p.os) | Tremors (Tre) (10 mg/kg p.os) | Convulsive seizure (Con) (20 mg/kg i.v., Table 9) | Analgesia (Ana) (20 mg/kg p.os) | Convulsive seizure (Con) (20 mg/kg p.os) | Respiratory distress (Res) (20 mg/kg p.os) | Tremors (Tre) (20 mg/kg p.os) | Convulsive seizure (Con) (40 mg/kg p.os) | Respiratory distress (Res) (40 mg/kg p.os) | Tremors (Tre) (40 mg/kg p.os) | Convulsive seizure (Con) (50 mg/kg p.os) | Respiratory distress (Res) (50 mg/kg p.os)
dec: Altered spontaneous motor activity (Mot) (5 mg/kg i.v.) | Altered spontaneous motor activity (Mot) (10 mg/kg i.v.) | Altered spontaneous motor activity (Mot) (20 mg/kg i.v., Table 9) | Altered spontaneous motor activity (Mot) (40 mg/kg i.v.) | Altered spontaneous motor activity (Mot) (40 mg/kg p.os) | Altered spontaneous motor activity (Mot) (50 mg/kg p.os)
68.9 mg/kg: LD50 (Intravenous Injection, 95% Confidence Limits 66.6 - 71.2)
sli: Lacrimation (Lac) (5 mg/kg i.v.) | Mydriasis (Myd) (5 mg/kg i.v.) | Salivation (Sal) (5 mg/kg i.v.) | Diarrhea (Dia) (10 mg/kg i.v.) | Hypothermia (Hyp) (10 mg/kg i.v.) | Lacrimation (Lac) (10 mg/kg i.v.) | Mydriasis (Myd) (10 mg/kg i.v.) | Piloerection (Pil) (10 mg/kg i.v.) | Lacrimation (Lac) (20 mg/kg p.os) | Salivation (Sal) (20 mg/kg p.os) | Diarrhea (Dia) (40 mg/kg p.os) | Hypothermia (Hyp) (40 mg/kg p.os) | Piloerection (Pil) (40 mg/kg p.os) | Salivation (Sal) (40 mg/kg p.os) | Diarrhea (Dia) (50 mg/kg p.os) | Hypothermia (Hyp) (50 mg/kg p.os) | Mydriasis (Myd) (50 mg/kg p.os)
sev: Lacrimation (Lac) (20 mg/kg i.v., Table 9) | Salivation (Sal) (20 mg/kg i.v., Table 9) | Lacrimation (Lac) (40 mg/kg i.v.) | Salivation (Sal) (40 mg/kg i.v.)
134.4 mg/kg: LD50 (Oral Administration, 95% Confidence Limits 118.4 - 152.5)
